According to paper PMC5218480 (PLoS ONE, 2017):

System: MV-4-11 cells
Test: Gene expression microarray analysis (Affymetrix PrimeView) and GSEA
Type: cell-based, human
Set-up: RFU PODN (11730768_x_at) / Fold change /veh PODN (11730768_x_at) / RFU LINC00158 (11744669_a_at) / Fold change /veh LINC00158 (11744669_a_at) / RFU DUSP10 (11751237_a_at) / Fold change /veh DUSP10 (11751237_a_at) / RFU ID3 (11757404_x_at) / Fold change /veh ID3 (11757404_x_at) / RFU PLEKHG5 (11737974_s_at) / Fold change /veh PLEKHG5 (11737974_s_at) / RFU LRRC4B (11730491_at) / Fold change /veh LRRC4B (11730491_at) / RFU GIMAP4 (11747438_a_at) / Fold change /veh GIMAP4 (11747438_a_at) / RFU KRT8 (11758183_x_at) / Fold change /veh KRT8 (11758183_x_at) / RFU CNN1 (11734310_a_at) / Fold change /veh CNN1 (11734310_a_at) / RFU VPS37D (11726825_at) / Fold change /veh VPS37D (11726825_at) / RFU C10orf10 (11716522_x_at) / Fold change /veh C10orf10 (11716522_x_at) / RFU KIR2DL2 /// KIR2DL4 /// KIR2DL5A /// KIR2DL5B /// KIR2DS1 /// KIR2DS2 /// KIR2DS3 /// KIR2DS4 /// KIR3DL3 /// KIR3DL3 /// KIR3DS1 (11738374_at) / Fold change /veh KIR2DL2 /// KIR2DL4 /// KIR2DL5A /// KIR2DL5B /// KIR2DS1 /// KIR2DS2 /// KIR2DS3 /// KIR2DS4 /// KIR3DL3 /// KIR3DL3 /// KIR3DS1 (11738374_at) / RFU C1QL1 (11718748_at) / Fold change /veh C1QL1 (11718748_at) / RFU TMPRSS4 (11747572_a_at) / Fold change /veh TMPRSS4 (11747572_a_at) / RFU HAMP (11756126_x_at) / Fold change /veh HAMP (11756126_x_at) / RFU RNFT2 (11725882_a_at) / Fold change /veh RNFT2 (11725882_a_at) / RFU NR4A2 (11747474_a_at) / Fold change /veh NR4A2 (11747474_a_at) / RFU ABCC12 (11746883_a_at) / Fold change /veh ABCC12 (11746883_a_at) / RFU TMEM136 (11760407_x_at) / Fold change /veh TMEM136 (11760407_x_at) / RFU CLDN22 /// WWC2 (11732394_at) / Fold change /veh CLDN22 /// WWC2 (11732394_at) / RFU HLA-DPB1 (11760878_x_at) / Fold change /veh HLA-DPB1 (11760878_x_at) / RFU SPINT1 (11716480_a_at) / Fold change /veh SPINT1 (11716480_a_at) / RFU GAP43 (11754022_s_at) / Fold change /veh GAP43 (11754022_s_at) / RFU A4GNT (11735810_at) / Fold change /veh A4GNT (11735810_at) / RFU PRB3 (11715151_x_at) / Fold change /veh PRB3 (11715151_x_at) / RFU TUBB4B (11761932_at) / Fold change /veh TUBB4B (11761932_at) / RFU CAPN14 (11732068_a_at) / Fold change /veh CAPN14 (11732068_a_at) / RFU TMCC2 (11721928_a_at) / Fold change /veh TMCC2 (11721928_a_at) / RFU IRGQ (11745062_a_at) / Fold change /veh IRGQ (11745062_a_at) / RFU FAM174B (11720279_a_at) / Fold change /veh FAM174B (11720279_a_at) / RFU TMPRSS4 (11748680_a_at) / Fold change /veh TMPRSS4 (11748680_a_at) / RFU FAM212B (11763350_a_at) / Fold change /veh FAM212B (11763350_a_at) / RFU PLEKHG5 (11743358_a_at) / Fold change /veh PLEKHG5 (11743358_a_at) / RFU ZSCAN30 (11745921_a_at) / Fold change /veh ZSCAN30 (11745921_a_at) / RFU CMKLR1 (11741424_a_at) / Fold change /veh CMKLR1 (11741424_a_at) / RFU LOC101060620 /// MAPK8IP1 (11723275_at) / Fold change /veh LOC101060620 /// MAPK8IP1 (11723275_at) / RFU SPTSSB (11747773_x_at) / Fold change /veh SPTSSB (11747773_x_at) / RFU PRSS12 (11739890_at) / Fold change /veh PRSS12 (11739890_at) / RFU BIN1 (11741810_x_at) / Fold change /veh BIN1 (11741810_x_at) / RFU WNT11 (11732464_a_at) / Fold change /veh WNT11 (11732464_a_at) / RFU C10orf10 (11716521_a_at) / Fold change /veh C10orf10 (11716521_a_at) / RFU C5orf56 (11738089_at) / Fold change /veh C5orf56 (11738089_at) / RFU CYB561 (11721691_x_at) / Fold change /veh CYB561 (11721691_x_at) / RFU ANKRD19P (11752326_a_at) / Fold change /veh ANKRD19P (11752326_a_at) / RFU OR2T12 /// OR2T33 /// OR2T8 (11738714_s_at) / Fold change /veh OR2T12 /// OR2T33 /// OR2T8 (11738714_s_at) / RFU VCAN (11748164_a_at) / Fold change /veh VCAN (11748164_a_at) / RFU JSRP1 (11732532_at) / Fold change /veh JSRP1 (11732532_at) / RFU KRTAP10-11 (11738290_x_at) / Fold change /veh KRTAP10-11 (11738290_x_at) / RFU MYO3A (11730013_a_at) / Fold change /veh MYO3A (11730013_a_at) / RFU EBF3 (11725865_a_at) / Fold change /veh EBF3 (11725865_a_at) / RFU CAMK2N1 (11719241_x_at) / Fold change /veh CAMK2N1 (11719241_x_at) / RFU C5orf56 (11738088_a_at) / Fold change /veh C5orf56 (11738088_a_at) / RFU OLFML3 (11715873_a_at) / Fold change /veh OLFML3 (11715873_a_at) / RFU LOC100653217 /// NTM (11731650_a_at) / Fold change /veh LOC100653217 /// NTM (11731650_a_at) / RFU MAPK11 (11762145_a_at) / Fold change /veh MAPK11 (11762145_a_at) / RFU FIZ1 (11724087_x_at) / Fold change /veh FIZ1 (11724087_x_at) / RFU OASL (11726364_x_at) / Fold change /veh OASL (11726364_x_at) / RFU SOX15 (11748057_x_at) / Fold change /veh SOX15 (11748057_x_at) / RFU CD79A (11719716_a_at) / Fold change /veh CD79A (11719716_a_at) / RFU HIST1H1D (11736915_at) / Fold change /veh HIST1H1D (11736915_at) / RFU CASKIN2 (11723855_a_at) / Fold change /veh CASKIN2 (11723855_a_at) / RFU LOC730098 (11760151_x_at) / Fold change /veh LOC730098 (11760151_x_at) / RFU OR4N2 (11742367_at) / Fold change /veh OR4N2 (11742367_at) / RFU PRRT2 (11749266_a_at) / Fold change /veh PRRT2 (11749266_a_at) / RFU SNX32 (11753110_a_at) / Fold change /veh SNX32 (11753110_a_at) / RFU CDHR5 (11726645_a_at) / Fold change /veh CDHR5 (11726645_a_at) / RFU RCAN1 (11760418_a_at) / Fold change /veh RCAN1 (11760418_a_at) / RFU FAM167A (11723789_a_at) / Fold change /veh FAM167A (11723789_a_at) / RFU FAM26E (11764081_at) / Fold change /veh FAM26E (11764081_at) / RFU ISYNA1 (11749810_s_at) / Fold change /veh ISYNA1 (11749810_s_at) / RFU ACY1 (11761880_at) / Fold change /veh ACY1 (11761880_at) / RFU 11764098_at / Fold change /veh 11764098_at / RFU SAMD14 (11745864_x_at) / Fold change /veh SAMD14 (11745864_x_at) / RFU NPB (11741838_a_at) / Fold change /veh NPB (11741838_a_at) / RFU TMPRSS6 (11731388_a_at) / Fold change /veh TMPRSS6 (11731388_a_at) / RFU KRTAP10-2 (11738614_at) / Fold change /veh KRTAP10-2 (11738614_at) / RFU ARHGAP8 /// PRR5-ARHGAP8 (11727945_x_at) / Fold change /veh ARHGAP8 /// PRR5-ARHGAP8 (11727945_x_at) / RFU KRTAP5-7 /// NADSYN1 (11734609_at) / Fold change /veh KRTAP5-7 /// NADSYN1 (11734609_at) / RFU RASL12 (11751679_a_at) / Fold change /veh RASL12 (11751679_a_at) / RFU CDKN2B (11736163_a_at) / Fold change /veh CDKN2B (11736163_a_at) / RFU PRF1 (11729649_at) / Fold change /veh PRF1 (11729649_at) / RFU, ZNF638 /// ZNF638-IT1 / Fold change vs veh, ZNF638 /// ZNF638-IT1 / RFU, PANK3 / Fold change vs veh, PANK3 / RFU, SH3YL1 / Fold change vs veh, SH3YL1 / RFU, ZEB2 / Fold change vs veh, ZEB2 / RFU, NRIP1 / Fold change vs veh, NRIP1 / RFU, PTTG1IP / Fold change vs veh, PTTG1IP / RFU, CAPN2 / Fold change vs veh, CAPN2 / RFU, MED14 / Fold change vs veh, MED14 / RFU, SNORA58 / Fold change vs veh, SNORA58 / RFU, C1orf63 / Fold change vs veh, C1orf63 / RFU, LRRFIP1 / Fold change vs veh, LRRFIP1 / RFU, NDUFAF7 / Fold change vs veh, NDUFAF7 / RFU, SLC12A2 / Fold change vs veh, SLC12A2 / RFU, IBTK / Fold change vs veh, IBTK / RFU, ESF1 / Fold change vs veh, ESF1 / Fold change vs veh, TMEM50B / RFU, TAOK1 / Fold change vs veh, TAOK1 / RFU, ACBD3 / Fold change vs veh, ACBD3 / RFU, TMA16 / Fold change vs veh, TMA16 / RFU, RWDD3 / Fold change vs veh, RWDD3 / RFU, BCAT1 / Fold change vs veh, BCAT1 / RFU, EDEM3 / Fold change vs veh, EDEM3 / RFU, TMEM33 / Fold change vs veh, TMEM33 / RFU, WDR75 / Fold change vs veh, WDR75 / RFU, AHCTF1 / Fold change vs veh, AHCTF1 / RFU, TFRC / Fold change vs veh, TFRC / RFU, ZDHHC17 / Fold change vs veh, ZDHHC17 / RFU, NOM1 / Fold change vs veh, NOM1 / RFU, ARL8B / Fold change vs veh, ARL8B / RFU, ZBTB11 / Fold change vs veh, ZBTB11 / RFU, TAMM41 / Fold change vs veh, TAMM41 / RFU, KIAA1704 /// LOC100996395 / Fold change vs veh, KIAA1704 /// LOC100996395 / RFU, ING1 / Fold change vs veh, ING1 / RFU, TRMT61B / Fold change vs veh, TRMT61B / RFU, FUBP3 / Fold change vs veh, FUBP3 / RFU, TP53 / Fold change vs veh, TP53 / RFU, TNKS2 / Fold change vs veh, TNKS2 / RFU, ZFP14 / Fold change vs veh, ZFP14 / RFU, ACTR2 / Fold change vs veh, ACTR2 / RFU, PPP3R1 / Fold change vs veh, PPP3R1 / RFU, PIK3R1 / Fold change vs veh, PIK3R1 / RFU, HNRNPA1 / Fold change vs veh, HNRNPA1 / RFU, RNF170 / Fold change vs veh, RNF170 / RFU, ZNF28 / Fold change vs veh, ZNF28 / RFU, RNGTT / Fold change vs veh, RNGTT / RFU, OGT / Fold change vs veh, OGT / RFU, BRD1 / Fold change vs veh, BRD1 / RFU, MARS / Fold change vs veh, MARS / RFU, ZNF655 / Fold change vs veh, ZNF655 / RFU, FAHD1 / Fold change vs veh, FAHD1 / RFU, BDP1 / Fold change vs veh, BDP1 / RFU, LRRCC1 / Fold change vs veh, LRRCC1 / RFU, ARID1A / Fold change vs veh, ARID1A / RFU, ZNF146 / Fold change vs veh, ZNF146 / RFU, ZNF330 / Fold change vs veh, ZNF330 / RFU, GPN3 / Fold change vs veh, GPN3 / RFU, C9orf123 / Fold change vs veh, C9orf123 / RFU, N4BP2L2 / Fold change vs veh, N4BP2L2 / RFU, ARFIP1 / Fold change vs veh, ARFIP1 / RFU, FAM179B / Fold change vs veh, FAM179B / RFU, BCL10 / Fold change vs veh, BCL10 / RFU, UHRF1BP1L / Fold change vs veh, UHRF1BP1L / RFU, BET1 / Fold change vs veh, BET1 / RFU, CNOT2 / Fold change vs veh, CNOT2 / RFU, ZNF268 / Fold change vs veh, ZNF268 / Fold change vs veh, ZNF507 / RFU, DGCR2 / Fold change vs veh, DGCR2 / RFU, WDSUB1 / Fold change vs veh, WDSUB1 / Fold change vs veh, HSP90B1 /// MIR3652 / RFU, ADSS / Fold change vs veh, ADSS / RFU, GK / Fold change vs veh, GK / RFU, ZNF148 / Fold change vs veh, ZNF148 / RFU, TAF9 / Fold change vs veh, TAF9 / RFU, SLC1A5 / Fold change vs veh, SLC1A5 / RFU, SLMO2 / Fold change vs veh, SLMO2 / RFU, ABCC4 / Fold change vs veh, ABCC4 / RFU, LOC101060439 /// RAP1B / Fold change vs veh, LOC101060439 /// RAP1B / RFU, RFX7 / Fold change vs veh, RFX7 / RFU, GTPBP10 / Fold change vs veh, GTPBP10 / RFU, CNEP1R1 / Fold change vs veh, CNEP1R1 / RFU, BIVM-ERCC5 /// ERCC5 / Fold change vs veh, BIVM-ERCC5 /// ERCC5 / RFU, ILF3 / Fold change vs veh, ILF3 / RFU 11762660_at / Fold change /veh 11762660_at / RFU VCAN (11757783_s_at) / Fold change /veh VCAN (11757783_s_at) / RFU DDX43 (11728927_at) / Fold change /veh DDX43 (11728927_at) / RFU KRT8 (11758188_x_at) / Fold change /veh KRT8 (11758188_x_at) / RFU NKD1 (11759106_at) / Fold change /veh NKD1 (11759106_at) / RFU SRD5A1 (11742802_a_at) / Fold change /veh SRD5A1 (11742802_a_at) / RFU TPSAB1 /// TPSB2 (11721975_s_at) / Fold change /veh TPSAB1 /// TPSB2 (11721975_s_at) / RFU GSTM3 (11746129_a_at) / Fold change /veh GSTM3 (11746129_a_at) / RFU IL23R (11737362_x_at) / Fold change /veh IL23R (11737362_x_at) / RFU TMEM51 (11727254_a_at) / Fold change /veh TMEM51 (11727254_a_at) / RFU PIWIL2 (11732686_x_at) / Fold change /veh PIWIL2 (11732686_x_at) / RFU ORM1 (11744905_x_at) / Fold change /veh ORM1 (11744905_x_at) / RFU CCDC152 (11743942_at) / Fold change /veh CCDC152 (11743942_at) / RFU ECM1 (11717891_a_at) / Fold change /veh ECM1 (11717891_a_at) / RFU IL23R (11748794_a_at) / Fold change /veh IL23R (11748794_a_at) / RFU TNFAIP8L3 (11732012_x_at) / Fold change /veh TNFAIP8L3 (11732012_x_at) / RFU MBOAT4 (11741988_at) / Fold change /veh MBOAT4 (11741988_at) / RFU 11764193_at / Fold change /veh 11764193_at / RFU TMEM53 (11763286_at) / Fold change /veh TMEM53 (11763286_at) / RFU MAGEB2 (11727129_at) / Fold change /veh MAGEB2 (11727129_at) / RFU TMEM200A (11744735_a_at) / Fold change /veh TMEM200A (11744735_a_at) / RFU CCDC152 (11751479_a_at) / Fold change /veh CCDC152 (11751479_a_at) / RFU FAM211A (11726209_a_at) / Fold change /veh FAM211A (11726209_a_at) / RFU RGS16 (11746705_a_at) / Fold change /veh RGS16 (11746705_a_at) / RFU VCAN (11755009_s_at) / Fold change /veh VCAN (11755009_s_at) / RFU RHOB (11743442_s_at) / Fold change /veh RHOB (11743442_s_at) / RFU RGS16 (11720943_a_at) / Fold change /veh RGS16 (11720943_a_at) / RFU RGS16 (11720944_at) / Fold change /veh RGS16 (11720944_at) / RFU, VPS4B / Fold change vs veh, VPS4B / RFU, CREB1 / Fold change vs veh, CREB1 / RFU, DNAJC13 / Fold change vs veh, DNAJC13 / RFU, GNAQ / Fold change vs veh, GNAQ / RFU, CDK5R1 / Fold change vs veh, CDK5R1 / RFU, ZRANB3 / Fold change vs veh, ZRANB3 / RFU, CUL4A / Fold change vs veh, CUL4A / RFU, CCNY / Fold change vs veh, CCNY / RFU, UFL1 / Fold change vs veh, UFL1 / RFU, COG3 / Fold change vs veh, COG3 / RFU, DIAPH2 / Fold change vs veh, DIAPH2 / RFU, SKA2 / Fold change vs veh, SKA2 / RFU, AFF3 / Fold change vs veh, AFF3 / RFU, LMF1 / Fold change vs veh, LMF1 / RFU, IPO11 / Fold change vs veh, IPO11 / RFU, DFFB / Fold change vs veh, DFFB / RFU, FOXP1 / Fold change vs veh, FOXP1 / RFU, CARD8 / Fold change vs veh, CARD8 / RFU, STRN3 / Fold change vs veh, STRN3 / RFU, ADK / Fold change vs veh, ADK / RFU, RASSF2 / Fold change vs veh, RASSF2 / RFU, WIPF1 / Fold change vs veh, WIPF1 / RFU, LARP1B / Fold change vs veh, LARP1B / RFU, RASA1 / Fold change vs veh, RASA1 / RFU, RB1 / Fold change vs veh, RB1 / RFU, PPFIA1 / Fold change vs veh, PPFIA1 / RFU, MAT2A / Fold change vs veh, MAT2A / RFU, CCT5 / Fold change vs veh, CCT5 / RFU, WDR92 / Fold change vs veh, WDR92 / RFU, CUX1 / Fold change vs veh, CUX1 / RFU, TTC7A / Fold change vs veh, TTC7A / RFU, TMEM135 / Fold change vs veh, TMEM135 / RFU, DEPTOR / Fold change vs veh, DEPTOR / RFU, CPM / Fold change vs veh, CPM / RFU, DNAJB6 / Fold change vs veh, DNAJB6 / RFU, CACNA2D3 / Fold change vs veh, CACNA2D3 / RFU, DTX4 / Fold change vs veh, DTX4 / RFU, TFCP2 / Fold change vs veh, TFCP2 / RFU, GMCL1 /// GMCL1P1 / Fold change vs veh, GMCL1 /// GMCL1P1 / RFU, AEBP2 / Fold change vs veh, AEBP2 / RFU, SNHG1 /// SNORD22 /// SNORD25 /// SNORD26 /// SNORD27 /// SNORD28 /// SNORD29 /// SNORD31 / Fold change vs veh, SNHG1 /// SNORD22 /// SNORD25 /// SNORD26 /// SNORD27 /// SNORD28 /// SNORD29 /// SNORD31 / Fold change (Aza/veh), C12orf56 (ProbeSet 11735607_a_at) / Fold change (ACY-1035/veh), C12orf56 (ProbeSet 11735607_a_at) / Fold change (Aza/veh), FGFR1OP (ProbeSet 11751329_s_at) / Fold change (ACY-1035/veh), FGFR1OP (ProbeSet 11751329_s_at) / Fold change (Aza/veh), VPS36 (ProbeSet 11739960_a_at) / Fold change (ACY-1035/veh), VPS36 (ProbeSet 11739960_a_at) / RFU SYPL1 (11715823_x_at) / Fold change /veh SYPL1 (11715823_x_at) / RFU IGFBP7 (11715501_s_at) / Fold change /veh IGFBP7 (11715501_s_at) / RFU REEP3 (11722064_at) / Fold change /veh REEP3 (11722064_at) / RFU IGLL1 (11728026_x_at) / Fold change /veh IGLL1 (11728026_x_at): dose or concentration left out as unconfirmed
Conditions: ProbeSet 11749645_x_at; LIST B

Nc1ccc(-c2cccs2)cc1NC(=O)c1ccc2c(c1)cc(C1CC1)n2CCN1CCOCC1 [ACY-1035]
RFU, ZNF268: 141.54 RFU
